Assay results published in patent US20250263376A1, “(E)-N-CINNAMOYLAMINOALKANOLS WITH MELANOGENESIS INHIBITORY ACTIVITY” (Uniwersytet Jagiellonski, priority 2024, published 2025).

What was measured:
[1] = test system: reconstructed human epidermis containing melanocytes MelanoDerm MEL-300-B; test: Melanogenesis inhibition in reconstructed human epidermis containing melanocytes (MelanoDerm); assay type: cell-based; conditions: 14 days, MTT
Description: Melanogenesis Inhibition Studies in a Model of Reconstructed Human Epidermis Containing Melanocytes (MelanoDerm by Mattek).
The research was carried out on reconstructed human epidermis containing melanocytes MelanoDerm™ MEL-300-B from MatTek (Bratislava, Slovakia). The ratio of keratinocytes to melanocytes in the epidermis used is 10:1. Only medium purchased from the same manufacturer (EPI-100-NMM-113) was used to culture the epidermis during the experiments. Once the epidermis was obtained, it was transferred to 12-well plates containing 5 mL of medium/well. Plates were used to enable proper contact of the lower parts of the inserts with the substrate (so-called hanging-top plate). Solutions of the compounds were prepared immediately before their application. The solutions were applied to the inserts using a positive displacement pipette and then distributed using a sterile glass bulb headed Pasteur pipette. The application was repeated every 48 hours, a total of 7 applications were performed. Before the next application, each insert was rinsed with sterile DPBS and dried with a sterile cotton buds. The application was also accompanied by a change of the medium. […] The epidermis was cultured in an incubator ensuring appropriate humidity, temperature (37° C.) and CO2 concentration (5%).
The experiment was conducted for 14 days. After this time, the inserts were rinsed with DPBS and dried with a cotton swab. For the selected pool of inserts, tissue viability was assessed using the MTT (Thiazolyl Blue Tetrazolium bromide) test, the remaining ones were used to determine the amount of melanin. To assess viability, the inserts were transferred to 24-well plate containing 0.3 mL of DMEM medium with 1 mg/mL MTT and incubated for 3 hours in an incubator. The epidermis was then placed in 2 mL of isopropanol and the resulting formazan was extracted for 2 hours at room temperature. The absorbance of the samples was measured at 570 nm in a microplate reader and correlated with the absorbance of the control by the formula: % Viability=[OD (570 nm) for test compound/OD (570 nm) for control]×100. To determine the amount of melanin, the inserts were incubated in 5% sodium bicarbonate for 30 min, then dried and placed in 0.5 mL of Solvable™ reagent, which caused complete lysis of the epidermis. After heating at 95° C., the absorbance of the samples was measured at 405 nm in a microplate reader. On this basis, the reduction in the amount of melanin was calculated in relation to the control sample. The absorbance results were also correlated with a standard curve for synthetic melanin.

keratinocytes (HaCaT) = test: Safety, MTT test in keratinocytes; assay type: cell-based; conditions: 48 hours
Description: (§1) In order to test the safety of the compounds, both normal human cells were used: keratinocytes (HaCaT), fibroblasts (BJ), primary melanocytes that occur in the skin, as well as human cancer cells: the hepatocarcinoma line HepG2 and the neuroblastoma line SH-SY5Y, which are considered a model for the assessment of hepatocytotoxicity and neurocytotoxicity. The concentrations of the tested compounds in the range of […] were used in the studies. The cell lines used in the research were purchased from the American Type Culture Collection (ATCC) and were cultured in media recommended by the manufacturer with the addition of FBS and antibiotics in an incubator ensuring appropriate culture conditions, i.e. humidity, temperature and CO2 concentration. Cells were seeded into multiwell plates and incubated with the test compounds for 48 hours. After this time, MTT and LDH tests were performed to assess cell viability. The MTT test is based on the ability to transform the substrate: [3-(4,5-dimethyl-2-thiazolyl)-2,5-diphenyl-2H-tetrazolium bromide into a colored product only by living cells. The absorbance at 570 nm, which corresponds to the absorption maximum for the product, is directly proportional to cell viability. The LDH test is based on testing the activity of the enzyme lactate dehydrogenase in the culture medium, which is released from cells as a result of damage to the cell membrane, e.g. as a result of cell death. Triton X-100 was used as a positive control in the test. The determination is colorimetric, the substrate is transformed by the released enzyme into a colored product, an increase in absorbance indicates a larger amount of the released enzyme, and thus confirms greater damage to cell membranes. Tables 7 and 8 present the results obtained, which correspond to the viability of cells incubated with the compounds in relation to the viability of cells constituting a control sample, i.e. incubated with the solvent (DMSO) at the same concentration as in the case of the groups tested in the MTT test or in relation to the results obtained for the Triton X-100 positive control in the LDH test. They indicate that the compounds are safe at the concentrations tested.

fibroblasts (BJ) = test: Safety, LDH test in fibroblasts; assay type: cell-based; conditions: 48 hours, vs Triton X-100
Description: as §1

neuroblastoma SH-SY5Y = test: Safety, MTT test in SH-SY5Y; assay type: cell-based; conditions: 48 hours
Description: as §1

CHO-K1 cells = test: Cytotoxicity (MTT) in CHO-K1 cells before the micronucleus test; assay type: cell-based, Chinese hamster; conditions: 24 hours
Description: The assay was performed using a Chinese hamster ovary cell line (CHO-K1) purchased from the American Type Culture Collection (ATCC). The cells were cultured in F-12K medium with the addition of 10% fetal bovine serum (FBS) and antibiotics (streptomycin/penicillin) in an incubator at 37° C. and 5% CO2 concentration). Before the actual micronucleus test, a cytotoxicity assessment was performed to ensure that the actual test was performed only at safe concentrations. For this purpose, cells were transferred to 96-well plates and incubated with the tested compounds for 24 hours. After this time, the MTT test was performed and cell viability was assessed in comparison to the control group (cells cultured with DMSO at the same concentration as in the case of the tested samples).

## O=C(/C=C/c1ccc(Cl)cc1)NCCCCCO [Compound A-111, (2E)-3-(4-chlorophenyl)-N-(5-hydroxypentyl)prop-2-enamide]
[1]; 1.0% in 50% PEG (10 μL)
  Viability [% control, mean ± SD]: 101.45 ± 6.45 % control
[1]; 1.0% in 50% PEG (25 μL)
  Viability [% control, mean ± SD]: 85.67 ± 7.25 % control
[1]; 2.0% in 50% PEG (25 μL)
  Viability [% control, mean ± SD]: 106.64 ± 7.78 % control
Keratinocytes (HaCaT); 100 μM
  MTT, Keratinocytes (HaCaT): 101.68 ± 3.45 % of solvent control
Keratinocytes (HaCaT); 150 μM
  MTT, Keratinocytes (HaCaT): 101.56 ± 1.94 % of solvent control
Keratinocytes (HaCaT); 200 μM
  MTT, Keratinocytes (HaCaT): 101.04 ± 2.77 % of solvent control
Keratinocytes (HaCaT); 250 μM
  MTT, Keratinocytes (HaCaT): 91.57 ± 2.10 % of solvent control
Fibroblasts (BJ); 100 μM
  LDH, Fibroblasts (BJ): 5.25 percentage of positive control
Fibroblasts (BJ); 150 μM
  LDH, Fibroblasts (BJ): 5.37 percentage of positive control
Fibroblasts (BJ); 200 μM
  LDH, Fibroblasts (BJ): 8.43 percentage of positive control
Fibroblasts (BJ); 250 μM
  LDH, Fibroblasts (BJ): 14.90 percentage of positive control
Neuroblastoma SH-SY5Y; 100 μM
  MTT, Neuroblastoma SH-SY5Y: 100.14 ± 3.22 % of solvent control
Neuroblastoma SH-SY5Y; 150 μM
  MTT, Neuroblastoma SH-SY5Y: 99.32 ± 3.36 % of solvent control
Neuroblastoma SH-SY5Y; 200 μM
  MTT, Neuroblastoma SH-SY5Y: 100.55 ± 2.31 % of solvent control
Neuroblastoma SH-SY5Y; 250 μM
  MTT, Neuroblastoma SH-SY5Y: 99.93 ± 4.36 % of solvent control
CHO-K1 cells; 100 μM
  % Viability [mean], CHO-K1: 86.1%
CHO-K1 cells; 150 μM
  % Viability [mean], CHO-K1: 95.6%
CHO-K1 cells; 200 μM
  % Viability [mean], CHO-K1: 98.6%

## O=C(/C=C/c1ccc(Cl)cc1)NCCCO [H-330/21, (2E)-3-(4-chlorophenyl)-N-(3-hydroxypropyl)prop-2-enamide]
Keratinocytes (HaCaT); 100 μM
  MTT, Keratinocytes (HaCaT): 102.03 ± 1.45 % of solvent control
Keratinocytes (HaCaT); 150 μM
  MTT, Keratinocytes (HaCaT): 101.42 ± 2.04 % of solvent control
Keratinocytes (HaCaT); 200 μM
  MTT, Keratinocytes (HaCaT): 97.07 ± 2.81 % of solvent control
Keratinocytes (HaCaT); 250 μM
  MTT, Keratinocytes (HaCaT): 94.89 ± 1.06 % of solvent control
Fibroblasts (BJ); 100 μM
  LDH, Fibroblasts (BJ): 4.74 percentage of positive control
Fibroblasts (BJ); 150 μM
  LDH, Fibroblasts (BJ): 6.50 percentage of positive control
Fibroblasts (BJ); 200 μM
  LDH, Fibroblasts (BJ): 14.25 percentage of positive control
Fibroblasts (BJ); 250 μM
  LDH, Fibroblasts (BJ): 28.74 percentage of positive control
Neuroblastoma SH-SY5Y; 100 μM
  MTT, Neuroblastoma SH-SY5Y: 99.79 ± 5.34 % of solvent control
Neuroblastoma SH-SY5Y; 150 μM
  MTT, Neuroblastoma SH-SY5Y: 99.86 ± 3.76 % of solvent control
Neuroblastoma SH-SY5Y; 200 μM
  MTT, Neuroblastoma SH-SY5Y: 99.79 ± 3.97 % of solvent control
Neuroblastoma SH-SY5Y; 250 μM
  MTT, Neuroblastoma SH-SY5Y: 99.11 ± 3.66 % of solvent control

## Cc1ccc(/C=C/C(=O)NCCCCCO)cc1 [H-415/21, (2E)-N-(5-hydroxypentyl)-3-(4-methylphenyl)prop-2-enamide]
Keratinocytes (HaCaT); 100 μM
  MTT, Keratinocytes (HaCaT): 101.11 ± 2.03 % of solvent control
Keratinocytes (HaCaT); 150 μM
  MTT, Keratinocytes (HaCaT): 101.78 ± 2.32 % of solvent control
Keratinocytes (HaCaT); 200 μM
  MTT, Keratinocytes (HaCaT): 100.88 ± 1.40 % of solvent control
Keratinocytes (HaCaT); 250 μM
  MTT, Keratinocytes (HaCaT): 88.54 ± 3.74 % of solvent control
Fibroblasts (BJ); 100 μM
  LDH, Fibroblasts (BJ): 8.81 percentage of positive control
Fibroblasts (BJ); 150 μM
  LDH, Fibroblasts (BJ): 8.75 percentage of positive control
Fibroblasts (BJ); 200 μM
  LDH, Fibroblasts (BJ): 9.82 percentage of positive control
Fibroblasts (BJ); 250 μM
  LDH, Fibroblasts (BJ): 16.63 percentage of positive control
Neuroblastoma SH-SY5Y; 100 μM
  MTT, Neuroblastoma SH-SY5Y: 100.68 ± 4.63 % of solvent control
Neuroblastoma SH-SY5Y; 150 μM
  MTT, Neuroblastoma SH-SY5Y: 99.32 ± 2.96 % of solvent control
Neuroblastoma SH-SY5Y; 200 μM
  MTT, Neuroblastoma SH-SY5Y: 100.27 ± 3.50 % of solvent control
Neuroblastoma SH-SY5Y; 250 μM
  MTT, Neuroblastoma SH-SY5Y: 101.71 ± 2.38 % of solvent control
CHO-K1 cells; 100 μM
  % Viability [mean], CHO-K1: 102.2%
CHO-K1 cells; 150 μM
  % Viability [mean], CHO-K1: 102.8%
CHO-K1 cells; 200 μM
  % Viability [mean], CHO-K1: 87.2%

## O=C(/C=C/c1ccc(Cl)cc1)NCCO [H-427/21, (2E)-3-(4-chlorophenyl)-N-(2-hydroxyethyl)prop-2-enamide]
Keratinocytes (HaCaT); 100 μM
  MTT, Keratinocytes (HaCaT): 100.47 ± 3.65 % of solvent control
Keratinocytes (HaCaT); 150 μM
  MTT, Keratinocytes (HaCaT): 98.15 ± 2.63 % of solvent control
Keratinocytes (HaCaT); 200 μM
  MTT, Keratinocytes (HaCaT): 99.24 ± 3.00 % of solvent control
Keratinocytes (HaCaT); 250 μM
  MTT, Keratinocytes (HaCaT): 89.94 ± 4.66 % of solvent control
Fibroblasts (BJ); 100 μM
  LDH, Fibroblasts (BJ): 2.75 percentage of positive control
Fibroblasts (BJ); 150 μM
  LDH, Fibroblasts (BJ): 5.92 percentage of positive control
Fibroblasts (BJ); 200 μM
  LDH, Fibroblasts (BJ): 9.00 percentage of positive control
Fibroblasts (BJ); 250 μM
  LDH, Fibroblasts (BJ): 17.32 percentage of positive control
Neuroblastoma SH-SY5Y; 100 μM
  MTT, Neuroblastoma SH-SY5Y: 100.48 ± 3.67 % of solvent control
Neuroblastoma SH-SY5Y; 150 μM
  MTT, Neuroblastoma SH-SY5Y: 100.96 ± 2.72 % of solvent control
Neuroblastoma SH-SY5Y; 200 μM
  MTT, Neuroblastoma SH-SY5Y: 101.30 ± 2.94 % of solvent control
Neuroblastoma SH-SY5Y; 250 μM
  MTT, Neuroblastoma SH-SY5Y: 102.60 ± 9.66 % of solvent control

## O=C(/C=C/c1ccccc1)NCCCCCCO [H-425/21, (E)-N-(6-hydroxyhexyl)cinnamic acid amide]
[1]; 1.0% in 50% PEG (10 μL)
  Viability [% control, mean ± SD]: 87.16 ± 6.30 % control
CHO-K1 cells; 100 μM
  % Viability [mean], CHO-K1: 87.6%
CHO-K1 cells; 150 μM
  % Viability [mean], CHO-K1: 83.8%
CHO-K1 cells; 200 μM
  % Viability [mean], CHO-K1: 88.0%

## O=C(/C=C/c1ccccc1)NCCCCCO [Compound A-133, (2E)-N-(5-hydroxypentyl)-3-phenylprop-2-enamide]
[1]; 1.0% in 50% PEG (10 μL)
  Viability [% control, mean ± SD]: 101.22 ± 6.52 % control
Keratinocytes (HaCaT); 100 μM
  MTT, Keratinocytes (HaCaT): 101.35 ± 2.17 % of solvent control
Keratinocytes (HaCaT); 150 μM
  MTT, Keratinocytes (HaCaT): 101.40 ± 2.08 % of solvent control
Keratinocytes (HaCaT); 200 μM
  MTT, Keratinocytes (HaCaT): 101.51 ± 2.49 % of solvent control
Keratinocytes (HaCaT); 250 μM
  MTT, Keratinocytes (HaCaT): 95.53 ± 2.80 % of solvent control
Fibroblasts (BJ); 100 μM
  LDH, Fibroblasts (BJ): 5.00 percentage of positive control
Fibroblasts (BJ); 150 μM
  LDH, Fibroblasts (BJ): 4.47 percentage of positive control
Fibroblasts (BJ); 200 μM
  LDH, Fibroblasts (BJ): 14.72 percentage of positive control
Fibroblasts (BJ); 250 μM
  LDH, Fibroblasts (BJ): 28.31 percentage of positive control
Neuroblastoma SH-SY5Y; 100 μM
  MTT, Neuroblastoma SH-SY5Y: 101.50 ± 3.33 % of solvent control
Neuroblastoma SH-SY5Y; 150 μM
  MTT, Neuroblastoma SH-SY5Y: 100.75 ± 3.01 % of solvent control
Neuroblastoma SH-SY5Y; 200 μM
  MTT, Neuroblastoma SH-SY5Y: 100.62 ± 5.99 % of solvent control
Neuroblastoma SH-SY5Y; 250 μM
  MTT, Neuroblastoma SH-SY5Y: 100.41 ± 1.87 % of solvent control
CHO-K1 cells; 100 μM
  % Viability [mean], CHO-K1: 94.6%
CHO-K1 cells; 150 μM
  % Viability [mean], CHO-K1: 97.2%
CHO-K1 cells; 200 μM
  % Viability [mean], CHO-K1: 89.1%
